# Where a SMILES comes first, the peptide text is derived from it. [ ]: non-standard residue; d: D form. dPhe(4-Cl) = N[C@H](Cc1ccc(Cl)cc1)C(=O)O; NMeL = CN[C@@H](CC(C)C)C(=O)O; ΔPro = O=C(O)[C@@H]1C=CCN1
# Tests used:
# male rats = assay: contraceptive treatment of male rats, 14-day daily injection; assay type: in vivo, rat; settings: 14-day treatment
# Excerpt: The peptide is used at a level effective to reduce testes and seminal vesicles weights and also to inhibit spermatogenesis after a 14-day administration to male rats. […] Prostate weights of male rats recover in 2-3 weeks and seminal vesicles weights in 4-5 weeks. It is preferred to use dosage levels in the range of from about 0.1 to about 1 milligram per rat per day, which can be administered without detrimental side effects.
# (§1) Male rats (about 320 grams each) are each treated with 1 milligram of the peptide synthesized in Example I, once a day, for 14 days by injection in 0.2 ml. of corn oil. All the rats show a decrease in testes and seminal vesicles weight, spermatogenesis and plasma androgen levels.
# Full recovery of testes and seminal vesicle weights and spermatogenesis ultimately occurs following cessation of the 14-day peptide administration. […] Fertility, as assessed by the ability to impregnate females, is restored in all of the rats which have not been sacrificed within 6 weeks after cessation of the injections.
# as §1, with “A first group (I) of male” for “Male”, “Peptide A” for “the peptide”, “III, every day” for “I, once a day,”, “days,” for “days”, “levels. […]” for “levels.”
# [1] = test system: pituitary gland of mammalians; settings: cited from earlier work
Compound,side effects / damage (male rats),potency as an inhibitor for the release of gonadotropins relative to the same peptide with Gly in the 6-position [1] [times]
"CC(=O)N1CC=C[C@H]1C(=O)N[C@H](Cc1ccc(Cl)cc1)C(=O)N[C@H](Cc1c[nH]c2ccccc12)C(=O)N[C@@H](CO)C(=O)N[C@@H](Cc1ccc(O)cc1)C(=O)N[C@H](Cc1c[nH]c2ccccc12)C(=O)N(C)[C@@H](CC(C)C)C(=O)N[C@@H](CCCNC(=N)N)C(=O)N1CCC[C@H]1C(=O)NCC(N)=O [Example I, [Ac--dehydro Pro^1, pCl--D--Phe^2,D--Trp^3,6,N^α MeLeu^7]--LRF] (Ac-[ΔPro][dPhe(4-Cl)][dW]SY[dW][NMeL]RPG-NH2)",without harmful side effects or irreversible damage,
"[des His^2, D--Ala^6 ] LRF",,3
